Results on 25 compounds are retold here after PubChem BioAssay (NCI).

What all share (test): DTP human tumour cell line panel, 48 h
Assay [1] deals with A549 NSCLC.
Assay [2] has as its system SK-OV-3 ovarian.
Assay [3] deals with UO-31 renal.
Assay [4] relates to RXF 393 renal.
Assay [5] relates to NCI-H460 lung.
The subject of assay [6] is HCT-15 colon.
The test system of assay [7] is ACHN renal.
Assay [8] has as its system BT-549 breast.
Assay [9] has as its system SNB-75 CNS.
The test system of assay [10] is MOLT-4 leukemia.
In assay [11] the test system is SF-295 CNS.
For assay [12], the system named is MALME-3M melanoma.

Molecules are shown by their SMILES.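 96-well plates; 48 h exposure; 5 concentrations. Endpoints by linear interpolation between flanking doses. Not reached: highest tested concentration assigned. At the TGI there is no net growth.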

Broadly, the TGI is the concentration at which net growth stops. Higher therefore signals less potent growth arrest. For `COc1ccc(N2C(=O)C3c4[nH]c5ccccc5c4C4CCC(C(C)(C)C)CC4C3C2=O)c(C)c1` (stereo unspecified), the TGI in assay [1], in assay [2], in assay [3], in [4], in [5] and in assay [6] was more than 100 µM each time. Also, the total growth inhibition concentration (TGI) in assay [7], in [8], in assay [9], in assay [10] and in assay [11] was more than 100 µM throughout.

For `O=c1[nH]cc(N=Cc2cc(Cl)cc(Cl)c2O)c(=O)[nH]1`, the TGI in assay [1] was more than 100 µM; in assay [2], 53.9 µM; in [3], more than 100 µM; in assay [12] it was 49.9 µM; in assay [4] it was more than 100 µM; in [5] it was more than 100 µM. Also, the total growth inhibition concentration (TGI) in assay [6] is more than 100 µM; in assay [7] it was 76.1 µM; in [8], 94.9 µM; in assay [10], 69.7 µM; in assay [11], 96.1 µM.

Turning to `Oc1cc2c3c(c1)c1cc4c(cc1c[n+]3CC2)OCO4`, the concentration for total growth inhibition (TGI) in assay [1] was more than 88.5 µM; in assay [2], more than 100 µM; in [3], more than 100 µM; in assay [12] it was 7.85 µM; in assay [4], more than 68.8 µM; in assay [5], more than 23.9 µM. The TGI was more than 100 µM in assay [6]; more than 100 µM in assay [7]; 8.1 µM in assay [8]; 26.3 µM in [9]; more than 100 µM in assay [11].

As for `c1ccc(N=C2SC3=Nc4cccc5cccc(c45)N3C2=Nc2ccccc2)cc1`, the total growth inhibition concentration (TGI) in assay [2], in [3], in assay [12], in [4], in assay [5] and in assay [6] was more than 100 µM throughout. In addition, the TGI in assay [8], in assay [9], in assay [10] and in [11] was more than 100 µM each time.

On to `Cc1ccccc1-n1c(=O)c2ncn(CCCl)c2n(-c2ccccc2C)c1=S`, for which the TGI in assay [1], in assay [2], in assay [3], in assay [4], in [5] and in [6] was more than 100 µM throughout. The total growth inhibition concentration (TGI) in assay [7], in assay [8], in assay [9], in [10] and in assay [11] was more than 100 µM throughout.

On to `Cc1nc(C(N)=S)sc1/C(CC(=O)C(=O)Nc1cccc2ccc(O)cc12)=N\NC(=O)c1ccncc1`, for which the total growth inhibition concentration (TGI) is more than 100 µM in [1]; more than 100 µM in assay [2]; more than 100 µM in assay [3]; more than 100 µM in assay [4]; 64.6 µM in [5]; more than 100 µM in assay [6]. The concentration for total growth inhibition (TGI) in assay [7] was more than 100 µM; in [8] it was more than 100 µM; in assay [9] it was more than 100 µM; in assay [10], 74.3 µM; in [11], more than 100 µM.

Take `C(/c1ccco1)=c1/nc(-c2ccccc2)n2c1nc1ccccc12`: the TGI in assay [1], in [2], in assay [3], in assay [12], in assay [4] and in assay [5] was more than 100 µM in each case. The concentration for total growth inhibition (TGI) in [6] is more than 100 µM; in assay [7], more than 100 µM; in [8], 94.4 µM; in assay [10] it was 33.5 µM; in [11], more than 100 µM.

Consider `CC(=O)O[C@H]1C(=O)[C@]2(C)[C@@H](OC(=O)OCCC(O)CO)C[C@H]3OC[C@@]3(OC(C)=O)[C@H]2[C@H](OC(=O)c2ccccc2)[C@]2(O)C[C@H](OC(=O)[C@H](O)[C@@H](NC(=O)c3ccccc3)c3ccccc3)C(C)=C1C2(C)C` (stereo partly specified), for which the TGI is more than 100 µM in assay [1]; more than 100 µM in assay [3]; 16.3 µM in [12]; 17.9 µM in assay [4]; 2.05 µM in assay [5]; more than 100 µM in assay [6]. For the same compound, the concentration for total growth inhibition (TGI) in assay [7] is more than 100 µM; in [8], 15.9 µM; in assay [9], 0.158 µM; in [10], 12.7 µM; in [11], 1.12 µM.

`COc1cc2c(cc1OC)C(c1ccccc1CCCCl)=NCC2`: the TGI in [1], in assay [2], in assay [3], in assay [4], in [5] and in assay [6] was more than 100 µM in each case. In addition, the TGI in [7], in [8], in [9], in assay [10] and in assay [11] was more than 100 µM throughout.

With `COc1cc(/C=C2\S/C(=N/Nc3nc(-c4ccc(Br)cc4)cs3)NC2=O)cc(OC)c1OC`, the TGI is 56.7 µM in [1]; 34.7 µM in assay [2]; 16.7 µM in assay [3]; 19.4 µM in assay [4]; 37.4 µM in assay [5]; 36.1 µM in assay [6]. Also, the TGI in assay [7] was determined as 25.4 µM; in assay [8], 33.8 µM; in [9], 77.2 µM; in assay [10], 9.51 µM; in assay [11], 36.6 µM.

As for `CCOC(=O)Nn1c(C)nnc1-c1ccccc1`, the total growth inhibition concentration (TGI) in [1], in assay [2], in assay [3], in assay [12], in assay [4] and in assay [5] was more than 100 µM throughout. The TGI in assay [6], in [7], in [8], in assay [10] and in assay [11] was more than 100 µM each time.

For `COc1ccc(/C=C2\CCC(C)C3=C2NC(=S)NC3c2ccc(OC)c(OC)c2)cc1OC` (stereo unspecified), the TGI in assay [1] was more than 100 µM; in [2], more than 31.6 µM; in assay [3], more than 31.6 µM; in assay [5], more than 100 µM; in assay [6], more than 31.6 µM; in assay [7], more than 31.6 µM. Moreover, the concentration for total growth inhibition (TGI) in [8] was 26.2 µM; in [9], more than 100 µM; in [10], 25.3 µM; in assay [11] it was more than 31.6 µM.

Take `NC(=O)C(c1ccccc1)N1OC2C(=O)N(c3ccccc3)C(=O)C2C1c1c2ccccc2c(Cl)c2ccccc12` (stereo unspecified): the TGI in assay [1], in [2], in [3], in [12], in [4] and in assay [6] was more than 100 µM each time. The TGI in [7], in assay [8], in assay [9], in assay [10] and in assay [11] was more than 100 µM each time.

As to `CC(=O)NC1=C(NCCC(C)C)C(=O)c2ccccc2C1=O`, the concentration for total growth inhibition (TGI) in assay [1], in assay [2], in [3], in [12], in assay [4] and in [5] was more than 50 µM in each case. The total growth inhibition concentration (TGI) in assay [6], in assay [7], in assay [9], in assay [10] and in [11] was more than 50 µM in each case.

For `COC(=O)[C@H]1CO[C@@H](C(C)(C)C)N1C(=O)N1C=CC(=O)C[C@@H]1C`, the TGI in assay [1], in assay [2], in assay [3], in assay [12], in assay [4] and in assay [7] was more than 100 µM each time. In addition, the total growth inhibition concentration (TGI) in assay [8], in assay [9] and in assay [11] was more than 100 µM throughout.

Take `CC[C@@]1(O)C(=O)OCc2c1cc1n(c2=O)Cc2c-1nc1ccccc1c2/C=N\NC(=O)CN`: the total growth inhibition concentration (TGI) was more than 100 µM in [1]; 5.38 µM in [3]; more than 91.6 µM in [12]; 7.66 µM in assay [4]; 4.66 µM in assay [5]; more than 100 µM in [6]. In addition, the total growth inhibition concentration (TGI) is more than 95.4 µM in assay [8], 6.21 µM in assay [9], 0.368 µM in assay [10] and 6.13 µM in assay [11].

On to `N=c1n(C(=O)N2CCCC2)c2cc(Cl)ccc2n1C1=NCCN1`, for which the TGI in assay [1], in [2], in assay [12], in assay [4], in assay [5] and in assay [6] was more than 100 µM throughout. In addition, the TGI in assay [7], in assay [8], in assay [10] and in [11] was more than 100 µM throughout.

In the case of `CCc1ccc(CCN2CCCCC2)nc1`, the concentration for total growth inhibition (TGI) in [1], in assay [2], in assay [3], in [12], in assay [4] and in assay [5] was more than 100 µM in each case. Besides, the TGI in assay [6], in assay [7], in assay [8], in assay [10] and in [11] was more than 100 µM in each case.

`COC(=O)C1CCC(=O)N1C(c1ccccc1)c1ccc(OC)c(OC)c1` (stereo unspecified): the TGI in assay [1], in assay [2], in assay [3], in assay [12], in [5] and in [6] was more than 100 µM throughout. The TGI in [7], in assay [8], in [9] and in assay [11] was more than 100 µM each time.

In the case of `CCOC(=O)C1=C(C)NC(=S)NC1c1ccccc1` (stereo unspecified), the TGI in assay [1] was more than 100 µM; in assay [2], more than 100 µM; in assay [3] it was more than 57.1 µM; in assay [12] it was more than 100 µM; in assay [4], more than 100 µM; in [5] it was more than 100 µM. In addition, the TGI in [6] was more than 56 µM; in assay [7], more than 100 µM; in [9] it was more than 100 µM; in [10] it was more than 100 µM; in [11], more than 100 µM.

Consider `COC(=O)[C@H](Cc1c[nH]c2ccccc12)NP(=O)(O)OCC1C=CC(n2cc(C)c(=O)[nH]c2=O)O1` (stereo partly specified), for which the concentration for total growth inhibition (TGI) in [6], in [8], in assay [9] and in assay [10] was more than 100 µM in each case.

Take `CCC12C=CCN3CCC4(C(=C(C(=O)OC)[C@@H]1O)Nc1ccccc14)C32` (stereo partly specified): the TGI in [1] stood at 5.15 µM; in [2], 6.2 µM; in assay [3], 6.49 µM; in [12] it was 3.43 µM; in [4], 2.65 µM; in assay [5], 3.71 µM. The concentration for total growth inhibition (TGI) in [6] worked out at 3.09 µM; in assay [7], 3.3 µM; in [9] it was 5.8 µM; in assay [10], 11.7 µM; in assay [11] it was 5.7 µM.

For `O=C(O)CN(CC(=O)O)C1CCCCC1N(CC(=O)O)CC(=O)NCCN=C=S` (stereo unspecified), the TGI in assay [1], in assay [2], in [3], in assay [12], in [4] and in assay [5] was more than 100 µM in each case. Also, the concentration for total growth inhibition (TGI) in assay [6], in assay [7], in assay [8], in [10] and in assay [11] was more than 100 µM in each case.

In the case of `FC(F)(F)c1cc(Cl)cnc1N/N=C(/c1ccccc1)c1ccccn1`, the TGI was 22.9 µM in assay [1]; 9.9 µM in assay [2]; 11.9 µM in [3]; 40.9 µM in [4]; 15 µM in [5]; more than 100 µM in assay [6]. Moreover, the total growth inhibition concentration (TGI) in assay [7] is 11.8 µM; in [8], 36.4 µM; in assay [9], 3.33 µM; in [10] it was 8.82 µM; in assay [11], 5.5 µM.

Turning to `CC(=O)Nc1ccc(-c2nnc(SCC(=O)Nc3ccc([N+](=O)[O-])cc3)o2)cc1`, the TGI amounted to 37 µM in [1]; 35.9 µM in assay [2]; 34.6 µM in assay [3]; 27 µM in assay [12]; 27.9 µM in assay [4]; 29.1 µM in assay [5]. Also, the TGI in assay [6] was 26 µM; in [7] it was 28.7 µM; in assay [9] it was 27.6 µM; in assay [10], more than 100 µM; in assay [11], 27.4 µM.
